Test results from US6200762A, “Photon reducing agents and compositions for fluorescence assays” (Aurora Biosciences Corporation, priority 1998, dated 2001).
Structures can show the parent of a compound that is named as a salt.

Assays:
[1] = Effect of 50% methanol on coumarin fluorescence and phenol red absorbance (dye stacking); format: physicochemical
Experimental: To further investigate the ability of a photon reducing agent to reduce fluorescence of a solution, fluorescence of a dye in the presence of a photon reducing agent was monitored in the presence and absence of methanol.
[…] A 10 μM solution of 6-chloro-7-hydroxy coumarin-3-carboxylate was prepared in 39 mM phosphate buffer pH 7.5 and in a 1:1 mixture of same phosphate buffer and methanol. 1% (vol/vol) of a 100 mM aqueous Phenol Red stock solution was added to the solutions.
The presence of methanol increased fluorescence compared to an all aqueous buffer.

[2] = Absorption maxima of dyes; format: physicochemical; conditions: for Absorption maximum: main value
[3] = Reduction of front face fluorescence of a coumarin solution by 1 mM phenol red; conditions: 0.5 μM coumarin, phosphate buffer pH 7.5 / 50% methanol
Experimental: To investigate the ability of a photon reducing agent to reduce fluorescence of a solution, emission of a fluorophore from a sample was monitored in the presence and absence of a photon reducing agent.
Fluorescence from a solution of a blue fluorescent dye, 6-chloro-7-hydroxy coumarin 3-carboxylate, was determined in the presence and absence of a 1 mM phenol red as the photon reducing agent. A solution of 0.5 μM 6-chloro-7-hydroxy coumarin-3-carboxylate in solvent containing 50% (vol/vol) aqueous 39 mM phosphate buffer pH 7.5 and 50% (vol/vol) methanol was prepared. After taking a front face fluorescence spectrum of this solution on a Spex Fluorolog 2, 1% (vol/vol) of a 100 mM aqueous Phenol Red stock solution was added and another spectrum taken. Front face fluorescence refers to exciting the sample at a right angle to the sample surface and collecting emitted light (for example, from the excited region or emission region) at 12.5 degrees from such angle of excitation.

[4] = Reduction of coumarin fluorescence as a function of path length; conditions: 10 μM coumarin + 1 mM phenol red, capillary
Experimental: To further investigate the ability of photon reducing agents to reduce fluorescence emitted from a solution, fluorescence emitted from a solution containing a fluorophore in the presence of a photon reducing agent was monitored as a function sample thickness.
A photon reducing agent, phenol red, was tested with a fluorophore, coumarin, as a function of sample thickness (path length). The experiment was conducted using a microscope equipped with epifluorescence. The liquid samples were drawn into low fluorescence capillary tubes of fixed path length (Vitro Dynamics, Rockaway N.J.) as indicated in the graphs. The following samples were evaluated:
1) 10 μM coumarin (diamonds)
2) 10 μM coumarin+1 mM phenol red (squares)
3) 10 μM coumarin+5% (vol/vol) Schilling Red (triangles).
The samples were excited using a 405/20 filter via a 425 dichroic reflector through a 20× objective (Zeiss 20×Fluar). Emitted light was filtered through a 460/50 filter and detected by an intensified CCD camera (Stanford Photonics, Menlo Park, Calif.). The detector output was converted to a 512×512 pixel eight-bit digital image. The data reflect the average intensity within a 20×20 pixel area within the capillary. The background intensity of the field was subtracted from all values.

[5] = pH 7.15
[6] = Reduction of solution fluorescence using non-dye quenchers and particulates; conditions: 10 μM coumarin, pH 7.5

Question: With `O=C(O)c1cc2cc(Cl)c(O)cc2oc1=O` [6-chloro-7-hydroxy coumarin-3-carboxylate] as the compound, how does the “increase of fluorescence by 50% methanol buffer” value ([1]; in the absence of a photon reducing agent) read?
Answer: about 30%

Question: Which Absorption maximum [2] does the source give for `CC(=O)Nc1ccc(N=Nc2c(N)ccc3cc(S(=O)(=O)[O-])cc(O)c23)c(S(=O)(=O)[O-])c1.[Na+].[Na+]` [Acid Red 37] here?
Answer: 513 nm

Question: Which results are given for `O=S1(=O)OC(c2ccc(O)cc2)(c2ccc(O)cc2)c2ccccc21` [Phenol Red]?
Answer: reduction of front face fluorescence [3]: 70 fold; decrease of absorbance by 50% methanol buffer ([1]; at the emission wavelength of the coumarin): about 20%; Absorption maximum [2]: 557 nm; Absorption maximum (second value, in parentheses) ([2]; value in parentheses): 423 nm; attenuation of coumarin fluorescence [4]: significantly attenuated

Question: With `O=C(O)c1nn(-c2ccc(S(=O)(=O)O)cc2)c(O)c1N=Nc1ccc(S(=O)(=O)O)cc1` [Tartrazine] as the compound, how does the Absorption maximum [2] read?
Answer: 425 nm

Question: Which Absorption maximum [2] does the source give for `Cc1cc(-c2ccc(/N=N/c3c(S(=O)(=O)O)cc4cc(S(=O)(=O)O)cc(N)c4c3O)c(C)c2)ccc1/N=N/c1c(S(=O)(=O)O)cc2cc(S(=O)(=O)O)cc(N)c2c1O` [Trypan Blue] here?
Answer: 607 nm

Question: Which “concentration at which coumarin fluorescence can be reduced” value [5] does the source give for `[Cl][Ni][Cl]` [nickel (II) salts, nickel (II) chloride] here?
Answer: low millimolar range

Question: For `NCCN(CCN)CCN` [tris(2-aminoethyl)amine], which “concentration typically required (collisional quenchers)” value [6] is on record?
Answer: higher than 100 mM
